Series [1] in a line: Positive inotropic effect in Sprague-Dawley rat ventricular myocytes assessed as change in ventricular cell contractility at 10 uM by video edge detector relative to control. It counts as functional, Ventricular myocyte.
Series [2] can be described thus: Positive inotropic effect in Sprague-Dawley rat ventricular myocytes assessed as change in ventricular cell contractility at 50 uM by video edge detector relative to control. It counts as functional, Ventricular myocyte.
The next series is filed under the species Bos taurus. In words: Activation of cardiac myosin S1 ATPase in bovine sarcomere at 10 uM by spectrophometric analysis in presence of actin thin filament complex relative to control.
For a further series, the species on record is Oryctolagus cuniculus. In words: Activation of skeletal myosin S1 ATPase in rabbit psoas muscle at 10 uM in presence of actin thin filament complex. It counts as tissue-based.
Another series is filed under the species Gallus gallus. In words: Activation of smooth myosin S1 ATPase in chicken gizzard at 10 uM in presence of actin thin filament complex.
Series [3] is described as follows: Positive inotropic effect in Sprague-Dawley rat ventricular myocytes assessed as change in ventricular cell contractility at 400 nM by video edge detector relative to control. The format is functional, Ventricular myocyte.
Series [4] in a line: Positive inotropic effect in Sprague-Dawley rat ventricular myocytes assessed as change in ventricular cell contractility at 1 uM by video edge detector relative to control. It counts as functional, Ventricular myocyte.
Series [5] can be described thus: Solubility of the compound in DMSO/tyrode solution. It counts as physicochemical.

Converted amounts (≈) assume the structure as drawn. The source made the active and inactive calls. The calls are words filed in the database; no cut-off is given here.

Turning to `COc1c(-c2ccc(Cl)cc2)oc2cc(Cl)ccc2c1=O`, the Activity in series [1] and in series [2] was 0% in each case.
Consider `COc1ccc2c(=O)c(O)c(-c3ccc(O)cc3)oc2c1`, for which the results for the Activity in series [1] and in series [2] were 8.87% and 23.1%, respectively.
For `COc1ccc(-c2oc3cc(OC)c(OC)c(O)c3c(=O)c2OC)cc1OC` [ARTEMETIN], in that order: 8.7% and 21.6%.
For the molecule `COc1c(-c2cccc(O)c2)oc2cc(Cl)ccc2c1=O`, the Activity in series [1] was found to be 54.8%; in series [2], 53.9%; in the series listed under Bos taurus, 38.7%. Besides, the outcome in the series filed under Oryctolagus cuniculus and in the series listed under Gallus gallus was inactive.
As to `COc1c(-c2ccc(O)cc2)oc2cc(Cl)ccc2c1=O`, the Activity in series [1] came to 49.6%; in series [2] it was 62.1%; in the series listed under Bos taurus it was 28.9%. The outcome in the series filed under Oryctolagus cuniculus and in the series listed under Gallus gallus was inactive.
With `COc1cccc(-c2oc3cc(Cl)ccc3c(=O)c2O)c1`, the Activity in series [1] and in series [2] was 0% throughout.
Turning to `COc1ccc2c(=O)c(OC)c(-c3ccc(O)cc3)oc2c1`, the Activity in series [1] stood at 42.1%; in series [2], 38.6%; in the series listed under Bos taurus it was 30.9%. The outcome in the series listed under Oryctolagus cuniculus and in the series filed under Gallus gallus was inactive.
On to `COc1cc(/C=C/C(=O)c2ccc(Cl)cc2O)ccc1O`, for which the Activity in series [1] and in series [2] was 0% each time.
For the molecule `COC(=O)N1CCN(Cc2cccc(NC(=O)Nc3ccc(C)nc3)c2F)CC1` [OMECAMTIV MECARBIL], the Activity is 59.3% in series [3], 33.8% in series [4] and 80.4% in the series filed under Bos taurus.
As for `COc1cc(-c2oc3ccccc3c(=O)c2O)ccc1O`, the Activity is listed as 10.5% in series [1] and 10.3% in series [2].
For `COc1cc(-c2oc3cc(Cl)ccc3c(=O)c2OC)ccc1O`, the Activity turned out to be 43.9% in series [1], 41.8% in series [2] and 36.4% in the series filed under Bos taurus. The outcome in the series filed under Oryctolagus cuniculus and in the series listed under Gallus gallus was inactive.
Regarding `COc1cc(-c2oc3cccc(O)c3c(=O)c2OC)ccc1O`, the Activity in series [1] was found to be 4.2%; in series [2], 12.3%; in the series listed under Bos taurus, 0%.
As to `O=c1c(O)c(-c2ccc(O)cc2)oc2cc(Cl)ccc12`, the Activity in series [1] worked out at 0%; in series [2], 11%.
On to `COc1cc(-c2oc3ccccc3c(=O)c2OC)ccc1O`, for which the Activity in series [1] turned out to be 30.5%; in series [2] it was 44.9%.
On to `COc1cc(-c2oc3ccc(O)cc3c(=O)c2OC)ccc1O`, for which the results for the Activity in series [1] and in series [2] were 3.9% and 9.3%, respectively.
For `COc1cc(-c2oc3ccc(O)cc3c(=O)c2O)ccc1O`, in that order: 0% and 0%.
In the case of `COc1cc(-c2cc(=O)c3ccc(Cl)cc3o2)ccc1O`, the Activity in series [1] and in series [2] was 0% in each case.
As for `COc1cc(-c2oc3cc(OC)c(O)c(O)c3c(=O)c2OC)ccc1O` [CHRYSOSPLENOL C], the Activity in series [1] turned out to be 16.6%; in series [2] it was 53%; in the series listed under Bos taurus, 28.1%. In series [5], this molecule displayed a solubility of 14.1 µg/mL (≈ 39.1 µM). Further, the result in the series listed under Oryctolagus cuniculus and in the series filed under Gallus gallus was inactive.
Consider `COc1ccc2c(=O)c(OC)c(-c3ccc(O)c(OC)c3)oc2c1`, for which the Activity in series [1] came to 60.7%; in series [2], 45.3%; in the series listed under Bos taurus, 33.7%. For the same molecule, the solubility in series [5] was 17.1 µg/mL (≈ 52 µM). The result in the series filed under Oryctolagus cuniculus and in the series listed under Gallus gallus was inactive.
With `COc1ccc2c(=O)c(O)c(-c3ccc(O)c(OC)c3)oc2c1`, the Activity was determined as 8.17% in series [1], 3.98% in series [2] and 0% in the series listed under Bos taurus.
As to `COc1cc(-c2oc3cccc(O)c3c(=O)c2O)ccc1O`, the Activity in series [1] and in series [2] was 0% throughout.
Regarding `COc1cc(-c2oc3cc(Cl)ccc3c(=O)c2O)ccc1O`, the Activity was found to be 23.5% in series [1] and 57.3% in series [2].
For `COc1cccc(-c2oc3cc(Cl)ccc3c(=O)c2OC)c1`, in that order: 16.6% and 23.6%.
In the case of `COc1ccc2c(=O)c(OC)c(-c3ccc(Cl)cc3)oc2c1`, the Activity in series [1] and in series [2] was 0% throughout.

The values above are taken from ChEMBL document CHEMBL3608211, “Exploration of Pharmacophore in Chrysosplenol C as Activator in Ventricular Myocyte Contraction” (ACS Med Chem Lett, 2015).
